Measurements published in ChEMBL document CHEMBL1201862, “PubChem BioAssay data set” (2004).
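Compound exposure: 48 hours, 5 concentrations, 96-well plates. GI50 = concentration required for 50% inhibition of growth.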 Active and inactive are the calls of the source. No stated cut-off is given here; in the data, active = GI50 up to about 1.1 µM and inactive = higher.

What was measured:
Experiment in all cases: NCI-60 cell line screen, 48 h
[1] = system: SF-268
[2] = system: M14
[3] = system: 786-0
[4] = system: NCI-H23
[5] = system: KM12
[6] = system: A498
[7] = system: HCT-116
[8] = system: NCI-H226
[9] = system: SK-OV-3
[10] = system: T47D
[11] = system: SN12C
[12] = system: LOX IMVI
[13] = system: Malme-3M
[14] = system: HL-60
[15] = system: CCRF-CEM
[16] = system: NCI-H522
[17] = system: HOP-62
[18] = system: A549
[19] = system: HOP-92

Measured: GI50

O=C(c1ccc(Cl)cc1)N(C(=O)N1CCCCC1)c1ccccc1
inactive: [1] > 100 µM | [2] > 100 µM | [3] > 100 µM | [4] 85.5 µM | [5] > 100 µM | [6] > 100 µM | [7] > 100 µM | [8] > 100 µM | [9] 33.9 µM | [10] 17.6 µM | [11] > 100 µM | [12] 68.1 µM | [13] 37.3 µM | [14] 20.1 µM | [15] 23.7 µM

Cc1ccc2c(=O)cc(Cc3cccs3)[nH]c2n1
inactive: [1] > 100 µM | [2] > 100 µM | [3] > 100 µM | [16] > 100 µM | [4] > 100 µM | [17] > 100 µM | [5] > 100 µM | [7] > 100 µM | [8] > 100 µM | [9] > 100 µM | [10] > 100 µM | [18] > 100 µM | [11] > 100 µM | [12] > 100 µM | [13] > 100 µM | [14] > 100 µM | [15] > 100 µM

NC(CC(=O)OCc1ccccc1)C(=O)OCc1ccccc1 (configuration not stated)
inactive: [1] > 100 µM | [2] > 100 µM | [3] > 100 µM | [16] > 100 µM | [4] > 100 µM | [17] > 100 µM | [5] > 100 µM | [7] > 100 µM | [10] > 100 µM | [18] > 100 µM | [11] > 100 µM | [12] > 100 µM | [15] > 100 µM

COc1cc(CC2c3cc(OC)c(OC)cc3CCN2C)ccc1O (configuration not stated)
inactive: [1] > 100 µM | [2] > 100 µM | [3] > 100 µM | [16] > 100 µM | [4] > 100 µM | [17] > 100 µM | [5] > 100 µM | [6] > 100 µM | [7] > 100 µM | [18] > 100 µM | [11] > 100 µM | [13] > 100 µM | [15] > 100 µM

CN(c1ccccc1)S(=O)(=O)c1ccc([N+](=O)[O-])cc1
inactive: [1] > 100 µM | [2] 55.7 µM | [3] > 100 µM | [16] > 100 µM | [4] 83.4 µM | [17] > 100 µM | [5] 46.5 µM | [7] > 100 µM | [8] > 100 µM | [10] > 100 µM | [18] > 100 µM | [11] > 100 µM | [12] > 100 µM | [13] 40.6 µM | [14] 57 µM

CC(=O)Nc1nnc(S(C)(=O)=O)s1
inactive: [1] > 100 µM | [2] > 100 µM | [3] > 100 µM | [19] > 100 µM | [4] > 100 µM | [17] > 100 µM | [5] > 100 µM | [6] > 100 µM | [7] > 100 µM | [8] > 100 µM | [18] > 100 µM | [11] > 100 µM | [13] > 100 µM | [14] > 100 µM | [15] > 100 µM

O=C1c2ccccc2C(=O)c2c(NCC(O)CO)ccc(NCC(O)CO)c21 (configuration not stated)
inactive: [1] 89.1 µM | [3] 69.7 µM | [16] 67.3 µM | [4] 96.2 µM | [17] 61.1 µM | [6] > 100 µM | [7] 67 µM | [8] 51.4 µM | [9] 40.9 µM | [10] > 100 µM | [18] > 100 µM | [11] 71.3 µM | [12] 28.3 µM | [13] 91.2 µM | [14] 63 µM | [15] 41.4 µM

Cc1cc(N(CCC#N)CCC#N)ccc1C(/N=N/c1ccc([N+](=O)[O-])cc1)=N\NC(=O)c1ccccc1
inactive: [1] 32.3 µM | [2] 86.9 µM | [3] 47.9 µM | [16] 17 µM | [4] 30.7 µM | [17] 87.5 µM | [5] 40.8 µM | [6] 25.9 µM | [7] 31.8 µM | [8] 39.1 µM | [9] 49.5 µM | [10] 27 µM | [18] 57.1 µM | [11] 43.3 µM | [13] 56.9 µM | [14] 32.1 µM | [15] 41.4 µM

CCN(CC)c1c(-c2c(N(CC)CC)c(OC(C)=O)c3sccn3c2=O)c(=O)n2ccsc2c1OC(C)=O
inactive: [1] 39.9 µM | [2] > 100 µM | [3] 22.5 µM | [19] > 100 µM | [4] > 100 µM | [17] 21.3 µM | [5] > 100 µM | [6] > 100 µM | [7] 71 µM | [8] 44.4 µM | [9] 73.3 µM | [11] > 100 µM | [12] > 100 µM | [13] > 100 µM | [14] > 100 µM | [15] > 100 µM
